Where “and” joins values, the source holds several entries; their conditions need not be identical. Equal entries are not always repeated. Entries after “also recorded” stand apart in the source; their conditions may differ. Where two headings read alike, the source gives them in different places.
Key:
[1] = test system: Hsp90 from ZAP-70-negative CLL cells, normal B and T cells; conditions: read-out: IC50, inhibition of binding of Hsp90 to biotin-GM; lysates from ZAP-70-negative CLL cells or normal T or B cells
Description: The binding affinity of the ligand is measured by its ability to inhibit the binding of geldanamycin, an inhibitor of Hsp90. The cell containing the Hsp90 is lysed in lysis buffer. The lysates are incubated with or without test agent and then incubated with biotin-geldanamycin linked to BioMag™ sreptavidin magnetic beads (Qiagen). The bound samples and the unbound supernatant can be separately collected and analyzed on SDS protein gels, and blotted using and Hsp90 antibody. The bands in the Western Blots may be quantitated using the Biorad Fluor-S MultiImager, and the percent inhibition of binding of Hsp90 to the biotin-geldanamycin calculated.
Tubes were placed on a magnetic rack, and the unbound supernatant removed. The magnetic beads were washed in lysis buffer and heated for 5 min at 95° C. in SDS-PAGE sample buffer. Samples were analyzed on SDS protein gels, and immunoblots performed using the indicated antibodies. The band intensities in the immunoblots were assessed using the Bio-rad Fluor-S MultiImager, and the percentage inhibition of binding of Hsp90 to the biotin-GM calculated.

[2] = test system: Purified native Hsp90 protein; conditions: read-out: IC50, inhibition of binding of Hsp90 to biotin-GM
Description: Valencia, Calif.) for 1 h at 4° C. Tubes were placed on a magnetic rack, and the unbound supernatant removed. The magnetic beads were washed in lysis buffer and heated for 5 min at 95° C. in SDS-PAGE sample buffer. Samples were analyzed on SDS protein gels, and immunoblots performed using the indicated antibodies. The band intensities in the immunoblots were assessed using the Bio-rad Fluor-S MultiImager, and the percentage inhibition of binding of Hsp90 to the biotin-GM calculated.

CLL cells = experiment: Apoptosis of primary CLL cells by flow cytometry (DiOC6/PI); conditions: 100 nM; for Apoptosis after treatment: ZAP-70+ CLL cells
Description: IgVH gene mutation was assessed by gene sequencing. Sequences with less than 98 percent homology to the corresponding germ-line IgVH sequence were considered mutated. […] Peripheral blood mononuclear cells (PBMC) from CLL patients were obtained from the CLL Research Consortium (CRC) tissue bank. […] ZAP-70 expression and IgVH gene mutational status were assessed. Cells were incubated in RPMI media at 37° C. with 5% CO2. […] Cell samples were incubated also in media with DMSO (1%) as a control.
(§1) Fluorochrome-conjugated monoclonal antibodies were used for flow cytometry. The samples were processed using a FACScalibur (Becton-Dickinson B D, Franklin Lakes, N.J.) and the data were analyzed using Flo-Jo 3.6 software (Stanford University-Tree Star Inc. San Francisco, Calif.). Apoptotic and viable cells were discriminated via flow cytometry with 3,3′ dihexyloxacarbocyanine iodide (DiOC6) (Molecular Probes, Eugene, Oreg.) and propidium iodide (Sigma, St. Louis, Mo.). Using this method viable cells exclude PI and stain brightly positive for DiOC6.

[3] = test system: B-cell receptor (BCR) signaling in ZAP-70+ CLL cells; experiment: B-cell receptor signaling after anti-μ stimulation in ZAP-70+ CLL cells (IP/immunoblot)
Description: Pxotein lysates were immunoprecipitated (IP) with specific anti-p72^Syk antibody and assessed by western blot (WB) for tyrosine phosphorylation using 4G10 antibody and p72^Syk expression. Protein lysates from the same samples were evaluated by western blot using the indicated antibodies. Activation of NF-κB was assessed by degradation of IκB-α.
Lysates were prepared as described above. Protein-A Sepharose beads (Zymed Laboratories Inc South San Francisco, Calif.) were pre-blocked with 5% BSA. The cell lysates were pre-cleared by incubating with 50 μl of protein-A Sepharose beads (50% slurry). To 100 μl of the pre-cleared cell lysate, either no antibody or antibodies to Hsp90, ZAP-70, p23, Hop, or p72^Syk were added, and incubated by rotating for 1 h at 4° C. Fifty μl of pre-cleared beads (50% slurry) were then added and incubated by rotating for 1 h at 4° C. Bound beads were centrifuged at 3,000×g and unbound samples were collected.
(§2) Protein lysates for immunoblot studies were prepared using RIPA buffer with protease inhibitors (10 μg/ml aprotinin, 10 μg/ml leupeptin, 10 μg/ml pepstatin and 1 mM phenylmethylsulfonyl fluoride), and in some cases phosphatase inhibitors (1 mM Na-Vanadate and 10 mM β-Glycerophosphate). Membranes were probed with antibodies as indicated. Detection was accomplished by chemiluminescence using horseradish peroxidase (HRP) conjugated antibodies followed by development with ECL Plus (Amersham-Biosciences Piscataway, N.J.) and autoradiography with Super RX film (Fuji, Tokyo, Japan)

[4] = test system: Ad-ZAP-70 transduced CLL cells; experiment: Apoptosis of ZAP-70-negative CLL cells transduced with Ad-ZAP-70; type: cell-based, human; conditions: 100 nM, 48 hours after 48 hours of transduction; P≦0.001
Description: . (A) ZAP-70-negative leukemia cells were transduced with adenovirus expressing ZAP-70 (Ad-ZAP-70—solid histogram) and β-galactosidase (Ad-LacZ—bold line histogram). Cells were kept in media as a control (dashed line histogram). After 48 hours in culture Ad-ZAP-70 but not Ad-LacZ transduced cells expressed the ZAP-70 transgene (46% expression with a mean fluorescence intensity ratio (MFIR) of 2.8). (B) ZAP-70-negative CLL cells were transduced with adenovirus and after 48 hours they were harvested and lysed. Immunoprecipitations (IP) and immunoblots were performed with the antibodies indicated. […]
cDNA of ZAP-70 extracted from normal T cells was cloned into the CMV promoter and polyadenylation signal of pcDNA3. This construct was then subcloned into the shuttle vector MCS(SK)pXCX2. This shuttle vector was cotransfected with pJM17 into 293 cells using the calcium phosphate method.
Isolated adenovirus plaques were harvested and used to infect 293 cells. High titer adenovirus preparations were obtained. CLL cells were infected with either Ad-ZAP-70 or a control adenovirus vector (Ad-LacZ) for 48 hours at 37° C. using a multiplicity of infection (MOI) of 1000.
. ZAP-70-negative CLL cells were transduced with an adenovirus vector encoding ZAP-70 (Ad-ZAP-70) or β-galactosidase (Ad-LacZ) as a control. […]

ZAP-70 in CLL cells = experiment: ZAP-70 expression in CLL cells after treatment (intracellular staining, immunoblot); type: cell-based, human; conditions: for IC50: read-out: IC50, dose-dependent reduction of leukemia-cell ZAP-70 expression
Description: Cells incubated in media with DMSO 1% final concentration were used as a control (⋄). ZAP-70 expression was evaluated by intracellular staining. […] In addition, immunoblots were probed with anti-Hsp70 and anti-poly ADP-ribose polymerase (PARP-1) monoclonal antibodies. β-actin was used as a protein loading control. […] The cells were stained with specific antibodies and analyze by flow cytometry.
as §2, §1

ZAP-70 in T cells = experiment: ZAP-70 expression in T cells after treatment (flow cytometry); type: cell-based, human
Description: Cells incubated in media with DMSO 1% final concentration were used as a control (⋄). ZAP-70 expression was evaluated by intracellular staining. […] The cells were stained with specific antibodies and analyze by flow cytometry.
Fluorochrome-conjugated monoclonal antibodies were used for flow cytometry. The samples were processed using a FACScalibur (Becton-Dickinson B D, Franklin Lakes, N.J.) and the data were analyzed using Flo-Jo 3.6 software (Stanford University-Tree Star Inc. San Francisco, Calif.).

CLL cells in whole blood = experiment: Whole blood apoptosis test of CLL subpopulation (DiOC6, anti-CD5/anti-CD19); conditions: different concentrations, room temperature
Description: For example, whole blood cells from patients with CLL or suspected of having CLL can be obtained. […] Red cells are lysed using ammonium-chloride buffer. The cells are stained with specific antibodies and DiOC6. Samples are analyzed by flow cytometry to show a density plot of cells labeled with anti-CD5 and anti-CD19.

C=CCNC1=C2CC(C)CC(OC)C(O)C(C)/C=C(\C)C(OC(N)=O)C(OC)/C=C\C=C(/C)C(=O)NC(=CC1=O)C2=O (centres unmarked) [17-AAG, 17-allylamino-17-demethoxygeldanamycin]
IC50 [1]: ≥ 300 nM | IC50 [2]: 600 nM | 17-AAG-induced apoptosis, % (CLL cells; 48 hours, primary CLL cells, each table row is one patient sample (patient no. 1-25)): 4.7% and 11.5% and 12.3% and 14.9% and 3.7% and 0.5% and 12.6% and 3.4% and 22.4% and 55.4% and 33.9% and 37.9% and 35.4% and 41.3% and 57.9% and 57.7% and 67.4% and 69.4% and 66.8% and 78.8% and 79.9% and 74.4% and 3.9% and 4.5% and 1.2% | Apoptosis after treatment (CLL cells; 24 hours): 30% | Apoptosis after treatment (CLL cells; 72 hours): 50% | Effect on level/degradation of p72Syk, IKK-α ([3]; ZAP-70+ CLL cells): did not alter the level of p72^Syk; also recorded: did not induce degradation of p72^Syk or IKK-α | Response to BCR ligation with anti-μ (p72Syk phosphorylation, IκB-α degradation) ([3]; prior treatment for ≧24 hours): inert to stimulation with anti-μ antibody | Apoptosis compared with non-transduced or Ad-LacZ transduced cells [4]: significantly higher level of apoptosis | Post-treatment ZAP-70 mean fluorescence intensity (MFI) (ZAP-70 in CLL cells; CLL cells, 300 nM, 48 hours, prior to treatment 110): 25 | IC50 (ZAP-70 in CLL cells; Homo sapiens, CLL cell, 24 h): 60 nM | Effect on ZAP-70 expression in T cells (ZAP-70 in T cells; T cells from CLL patients or healthy donors, even at ≧300 nM): did not affect ZAP-70 expression levels in T cells | Post-treatment ZAP-70 mean fluorescence intensity (MFI) (ZAP-70 in T cells; T cells, 300 nM, 48 hours, prior to treatment 210): 190 | Induction of apoptosis in whole blood CLL subpopulation (CLL cells in whole blood): exclusively in the ZAP-70 positive cells

CO[C@H]1/C=C\C=C(/C)C(=O)NC2=CC(=O)C(NCCN(C)C)=C(C[C@@H](C)C[C@H](OC)[C@H](O)[C@@H](C)/C=C(\C)[C@@H]1OC(N)=O)C2=O [17-DMAG, 17-(2-dimethylaminoethy)amino-17-demethoxygeldanamycin]
IC50 (ZAP-70 in CLL cells; ZAP-70+ CLL cells, after 24 hours): 60 nM

Source: patent US8741578B2, “Methods of detecting chronic lymphocytic leukemia with Hsp90 and ZAP-70” (The Regents of the University of California, priority 2004, dated 2014)
